What is called IC50 is the concentration needed to halve the response being measured.

Some results are limits rather than exact numbers.

For assay [1], the target named is Recombinant human Cbl-b (aa 36-427) (Homo sapiens (Human), UniProt Q13191). Briefly: Cbl-b Biochemical Assay (TR-FRET). To be noted: read-out: TR-FRET hCbl-b IC50. The method, boiled down:
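IC50 from 4-parameter fit of % inhibition (DMSO max, reference-inhibitor min), duplicate ten-point series. Compound preincubated with 6 nM Cbl-b, then Src-Zap70 (1-2.5 nM)/0.5 mM ATP reaction 60 min RT; EDTA quench with labelled UBE2D2-Ub and streptavidin-terbium, 60 min, HTRF at 520 nm.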
(In general: In TR-FRET formats the signal depends on donor and acceptor labels being close together.)

Assay [2] has as its target Recombinant human c-Cbl (aa 47-435) (Homo sapiens (Human), UniProt P22681). Briefly: c-Cbl Biochemical Assay (TR-FRET). A digest of the protocol:
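TR-FRET binding of UBE2D2-Ub-Bodipy (100 nM) to biotinylated c-Cbl (aa 47-435, 6 nM) via Streptavidin-Tb, measured after c-Cbl activation by Src-Zap70 with 0.5 mM ATP (60-90 min RT, 30 min compound preincubation). Ten-point half-log dilutions, 1% DMSO; IC50 by 4-parameter fit of normalized inhibition.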

Chain of Recombinant human Cbl-b (aa 36-427) (Q13191 36-427): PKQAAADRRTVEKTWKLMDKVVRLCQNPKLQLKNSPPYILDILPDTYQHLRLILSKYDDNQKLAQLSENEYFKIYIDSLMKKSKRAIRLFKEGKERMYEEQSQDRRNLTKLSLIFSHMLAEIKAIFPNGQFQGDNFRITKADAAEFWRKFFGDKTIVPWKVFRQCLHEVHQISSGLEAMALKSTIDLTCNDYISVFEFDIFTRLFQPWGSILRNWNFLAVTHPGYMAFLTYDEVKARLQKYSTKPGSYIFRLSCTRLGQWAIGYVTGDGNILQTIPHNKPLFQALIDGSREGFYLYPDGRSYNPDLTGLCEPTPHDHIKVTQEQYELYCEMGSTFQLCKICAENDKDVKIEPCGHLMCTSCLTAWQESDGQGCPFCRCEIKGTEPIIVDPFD
Chain of Recombinant human c-Cbl (aa 47-435) (P22681 47-435): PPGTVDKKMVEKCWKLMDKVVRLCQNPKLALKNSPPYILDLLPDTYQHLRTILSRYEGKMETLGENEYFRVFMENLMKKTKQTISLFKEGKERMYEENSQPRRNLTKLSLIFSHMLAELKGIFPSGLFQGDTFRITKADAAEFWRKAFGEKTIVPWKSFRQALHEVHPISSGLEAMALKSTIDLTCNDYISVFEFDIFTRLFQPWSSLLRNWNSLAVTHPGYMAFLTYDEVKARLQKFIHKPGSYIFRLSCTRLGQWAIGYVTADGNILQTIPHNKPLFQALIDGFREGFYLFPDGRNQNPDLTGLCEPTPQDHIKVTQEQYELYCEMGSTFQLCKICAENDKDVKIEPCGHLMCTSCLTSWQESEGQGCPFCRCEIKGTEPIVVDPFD

With `Cn1cnnc1-c1cc(C#N)ccc1-c1cc(C2CC2)nc(N2Cc3ccc(COCC4CCCC4)cc3C2=O)c1` [AIS-2, 4-(2-{6-[(cyclopentylmethoxy)methyl]-1-oxo-3H-isoindol-2-yl}-6-cyclopropylpyridin-4-yl)-3-(4-methyl-1,2,4-triazol-3-yl)benzonitrile], the IC50 in assay [1] and in assay [2] was at most 200 nM throughout.
Regarding `CN1CC[C@@H](NCc2ccc3c(c2)C(=O)N(c2cc(-c4ccc(C#N)cc4-c4nncn4C)cc(C4CC4)n2)C3)C1=O` [AIZ-2, 4-{2-Cyclopropyl-6-[6-({[(3R)-1-methyl-2-oxopyrrolidin-3-yl]amino}methyl)-1-oxo-3H-isoindol-2-yl]pyridin-4-yl}-3-(4-methyl-1,2,4-triazol-3-yl)benzonitrile], the IC50 in assay [1] and in assay [2] was at most 200 nM each time.
In the case of `CCOc1cc(-c2ccc(Cl)cc2-c2nncn2C)cc(N2Cc3c(cc(CNCC4(O)CCC4)cc3C(F)(F)F)C2=O)n1` [AHW-1, 2-{4-[4-Chloro-2-(4-methyl-1,2,4-triazol-3-yl)phenyl]-6-ethoxypyridin-2-yl}-6-({[(1-hydroxycyclobutyl)methyl]amino}methyl)-4-(trifluoromethyl)-3H-isoindol-1-one], the IC50 in assay [1] and in assay [2] was at most 200 nM each time.
As to `Cn1cnnc1-c1cc(C#N)ccc1-c1cc(C2CC2)nc(N2Cc3ccc(CNC(C)(C)C4COC4)cc3C2=O)c1` [ANM-2, 4-{2-Cyclopropyl-6-[6-({[2-(oxetan-3-yl)propan-2-yl]amino}methyl)-1-oxo-3H-isoindol-2-yl]pyridin-4-yl}-3-(4-methyl-1,2,4-triazol-3-yl)benzonitrile], the IC50 in assay [1] and in assay [2] was at most 200 nM throughout.
Take `COCCNCc1ccc2c(c1)C(=O)N(c1cccc(-c3ccc(C#N)cc3-c3nncn3C)c1)C2` [AJF-1, 3′-(6-(((2-Methoxyethyl)amino)methyl)-1-oxoisoindolin-2-yl)-2-(4-methyl-4H-1,2,4-triazol-3-yl)-[1,1′-biphenyl]-4-carbonitrile]: the IC50 in assay [1] and in assay [2] was at most 200 nM throughout.
Take `Cn1cnnc1-c1cc(Cl)ccc1-c1cc(C2CC2)nc(N2Cc3ccc(CO)cc3C2=O)c1` [AIU-1, 2-(4-(4-Chloro-2-(4-methyl-4H-1,2,4-triazol-3-yl)phenyl)-6-cyclopropylpyridin-2-yl)-6-(hydroxymethyl)isoindolin-1-one]: the IC50 in assay [1] and in assay [2] was at most 200 nM throughout.
Take `Cn1cnnc1-c1cc(C#N)ccc1-c1cc(C2CC2)nc(N2Cc3c(cc(COCC4(O)CCC4)cc3C(F)(F)F)C2=O)c1` [AHP-1, 4-(2-Cyclopropyl-6-(6-(((1-hydroxycyclobutyl)methoxy)methyl)-1-oxo-4-(trifluoromethyl)isoindolin-2-yl)pyridin-4-yl)-3-(4-methyl-4H-1,2,4-triazol-3-yl)benzonitrile]: the IC50 in assay [1] and in assay [2] was at most 200 nM throughout.
As for `Cn1cnnc1-c1cc(C#N)ccc1-c1cc(C2CC2)nc(N2Cc3ccc(CN4CC(F)C4)cc3C2=O)c1` [ALJ-1, 4-(2-Cyclopropyl-6-{6-[(3-fluoroazetidin-1-yl)methyl]-1-oxo-3H-isoindol-2-yl}pyridin-4-yl)-3-(4-methyl-1,2,4-triazol-3-yl)benzonitrile], the concentration for half-maximal inhibition (IC50) in assay [1] and in assay [2] was at most 200 nM in each case.
For `CC(NCC1CC1)c1ccc2c(c1)C(=O)N(c1cc(-c3ccc(C#N)cc3-c3nncn3C)cc(C3CC3)n1)C2` (stereo not shown) [AJI-1, 4-(2-Cyclopropyl-6-(6-(1-((cyclopropylmethyl)amino)ethyl)-1-oxoisoindolin-2-yl)pyridin-4-yl)-3-(4-methyl-4H-1,2,4-triazol-3-yl)benzonitrile], the IC50 in assay [1] and in assay [2] was at most 200 nM each time.
With `COC[C@@H]1CCCN1Cc1cc(F)c2c(c1)C(=O)N(c1cc(-c3ccc(C#N)cc3-c3nncn3C)cc(C3CC3)n1)C2` [AOY-2, (S)-4-(2-Cyclopropyl-6-(4-fluoro-6-((2-(methoxymethyl)pyrrolidin-1-yl)methyl)-1-oxoisoindolin-2-yl)pyridin-4-yl)-3-(4-methyl-4H-1,2,4-triazol-3-yl)benzonitrile], the IC50 in assay [1] and in assay [2] was at most 200 nM throughout.
For `Cn1cnnc1-c1cc(C#N)ccc1-c1cc(N2Cc3c(F)cc(CO)cc3C2=O)nc(C(F)(F)F)c1` [ALM-3, 4-{2-[4-Fluoro-6-(hydroxymethyl)-1-oxo-3H-isoindol-2-yl]-6-(trifluoromethyl)pyridin-4-yl}-3-(4-methyl-1,2,4-triazol-3-yl)benzonitrile], the IC50 in assay [1] is at most 200 nM; in assay [2] it was 200 to 1000 nM.
For `CO[C@@H](C)CNCc1ccc2c(c1)C(=O)N(c1cc(-c3ccc(C#N)cc3-c3nncn3C)cc(C3CC3)n1)C2` [AIM-2, 4-{2-cyclopropyl-6-[6-({[(2S)-2-methoxypropyl]amino}methyl)-1-oxo-3H-isoindol-2-yl]pyridin-4-yl}-3-(4-methyl-1,2,4-triazol-3-yl) benzonitrile], the IC50 in assay [1] and in assay [2] was at most 200 nM each time.
For the compound `CNCCNCc1cc2c(c(C(F)(F)F)c1)CN(c1cc(-c3ccc(C#N)cc3-c3nncn3C)cc(C3CC3)n1)C2=O` [AMK-3, 4-{2-Cyclopropyl-6-[6-({[2-(methylamino)ethyl]amino}methyl)-1-oxo-4-(trifluoromethyl)-3H-isoindol-2-yl]pyridin-4-yl}-3-(4-methyl-1,2,4-triazol-3-yl)benzonitrile], the IC50 in assay [1] and in assay [2] was at most 200 nM in each case.
In the case of `C[C@H]1CCCN(Cc2ccc3c(c2)C(=O)N(c2cc(-c4ccc(C#N)cc4-c4nncn4C)cc(C4CC4)n2)C3)C1` [ALS-1, 4-[2-Cyclopropyl-6-(6-{[(3S)-3-methylpiperidin-1-yl]methyl}-1-oxo-3H-isoindol-2-yl)pyridin-4-yl]-3-(4-methyl-1,2,4-triazol-3-yl)benzonitrile], the half-inhibitory concentration (IC50) in assay [1] and in assay [2] was at most 200 nM each time.
Take `COC(F)(F)CNCc1cc(F)c2c(c1)C(=O)N(c1cc(-c3ccc(C#N)cc3-c3nncn3C)cc(C3CC3)n1)C2` [ALV-4, 4-[2-Cyclopropyl-6-(6-{[(2,2-difluoro-2-methoxyethyl)amino]methyl}-4-fluoro-1-oxo-3H-isoindol-2-yl)pyridin-4-yl]-3-(4-methyl-1,2,4-triazol-3-yl)benzonitrile]: the IC50 in assay [1] and in assay [2] was at most 200 nM each time.
As to `Cn1cnnc1-c1cc(C#N)ccc1-c1cc(C2CC2)nc(N2Cc3c(F)cc(CN4CCC[C@](C)(O)C4)cc3C2=O)c1` [AMR-2, 4-[2-Cyclopropyl-6-(4-fluoro-6-{[(3S)-3-hydroxy-3-methylpiperidin-1-yl]methyl}-1-oxo-3H-isoindol-2-yl)pyridin-4-yl]-3-(4-methyl-1,2,4-triazol-3-yl)benzonitrile], the IC50 in assay [1] and in assay [2] was at most 200 nM each time.
Take `CNC[C@H](O)COc1ccc2c(c1)C(=O)N(c1cc(-c3ccc(C#N)cc3-c3nncn3C)cc(C3CC3)n1)C2` [AJU-3, 4-(2-Cyclopropyl-6-{6-[(2S)-2-hydroxy-3-(methylamino)propoxy]-1-oxo-3H-isoindol-2-yl}pyridin-4-yl)-3-(4-methyl-1,2,4-triazol-3-yl) benzonitrile]: the IC50 in assay [1] and in assay [2] was at most 200 nM each time.
With `CNCc1ccc2c(c1)C(=O)N(c1cc(-c3ccc(C#N)cc3-c3nncn3C)cc(C3CC3)n1)C2` [AIT-1, 4-(2-cyclopropyl-6-{6-[(methylamino)methyl]-1-oxo-3H-isoindol-2-yl}pyridin-4-yl)-3-(4-methyl-1,2,4-triazol-3-yl)benzonitrile], the IC50 in assay [1] and in assay [2] was at most 200 nM throughout.
Consider `COCCNCc1cc2c(c(F)c1F)CN(c1cc(-c3ccc(C#N)cc3-c3nncn3C)cc(C3CC3)n1)C2=O` [AMP-1, 4-[2-Cyclopropyl-6-(4,5-difluoro-6-{[(2-methoxyethyl)amino]methyl}-1-oxo-3H-isoindol-2-yl)pyridin-4-yl]-3-(4-methyl-1,2,4-triazol-3-yl)benzonitrile], for which the IC50 in assay [1] and in assay [2] was at most 200 nM throughout.
For `CN(Cc1ccc2c(c1)C(=O)N(c1cc(-c3ccc(F)cc3-c3nncn3C)cc(C3CC3)n1)C2)CC(C)(C)O` [AMM-1, 2-{6-Cyclopropyl-4-[4-fluoro-2-(4-methyl-1,2,4-triazol-3-yl)phenyl]pyridin-2-yl}-6-{[(2-hydroxy-2-methylpropyl)(methyl)amino]methyl}-3H-isoindol-1-one], the IC50 in assay [1] and in assay [2] was at most 200 nM throughout.
Take `COC[C@@H](C)NCc1ccc2c(c1)C(=O)N(c1cc(-c3ccc(C#N)cc3-c3nncn3C)cc(C3CC3)n1)C2` [AIK-2, 4-{2-Cyclopropyl-6-[6-({[(2R)-1-methoxypropan-2-yl]amino}methyl)-1-oxo-3H-isoindol-2-yl]pyridin-4-yl}-3-(4-methyl-1,2,4-triazol-3-yl)]: the IC50 in assay [1] and in assay [2] was at most 200 nM each time.
For `CN(Cc1cc(F)c2c(c1)C(=O)N(c1cc(-c3ccc(C#N)cc3-c3nncn3C)cc(C3CC3)n1)C2)CC1CCC1` [AKT-1, 4-[2-(6-{[(Cyclobutylmethyl)(methyl)amino]methyl}-4-fluoro-1-oxo-3H-isoindol-2-yl)-6-cyclopropylpyridin-4-yl]-3-(4-methyl-1,2,4-triazol-3-yl)benzonitrile], the IC50 in assay [1] and in assay [2] was at most 200 nM throughout.
For `Cn1cnnc1-c1cc(C#N)ccc1-c1cc(C2CC2)nc(N2Cc3cnc(CNCC4CCC4)cc3C2=O)c1` [ALF-2, 4-[2-(6-{[(Cyclobutylmethyl)amino]methyl}-1-oxo-3H-pyrrolo[3,4-c]pyridin-2-yl)-6-cyclopropylpyridin-4-yl]-3-(4-methyl-1,2,4-triazol-3-yl)benzonitrile], the IC50 in assay [1] and in assay [2] was at most 200 nM in each case.

Values taken from patent US12325697B2 (Nimbus Clio, Inc., priority 2021, dated 2025).
